In this assay the target is T1, human MMP-9 (gelatinase B) (Homo sapiens, UniProt P14780).
T1 construct: endogenous in cells; host or cells: HT1080 human fibrosarcoma cells (ATCC CCL-121), PMA-stimulated; enzyme purified from the culture supernatant
Nature of the assay: Inhibition activity against human MMP-9 (gelatinase B), fluorescent peptide substrate. The assay is classed as biochemical. As for the experimental part:
Human MMP-9 (gelatinase B) was purified by the following method from a culture supernatant of HT1080 cells (human fibrosarcoma).
2.5×10^6 HT1080 cells (ATCC CCL-121, purchased from Dainippon Seiyaku) were inoculated to a tissue culture dish (Code No. 3020-100, manufactured by Iwaki Glass Co., Ltd.) having a diameter of 10 cm and containing 10 ml of Dulbecco's Modified Eagle Medium (DME, No. D-5648, manufactured by Sigma Co.) containing 10% fetal bovine serum (FBS: REHATUIN™, Code No. 1020-90, manufactured by Intergen Co.) and cultured for 72 hours at 37° C. in an atmosphere comprising 5% of CO2 and 95% of air (Carbon Dioxide Incubator LNA-122D Model, manufactured by Tabai Co.). Then, the medium was changed to 10 ml of a DME culture medium containing no FBS, and phorbol 12-myristate 13-acetate (PMA, code No. 163-114851, manufactured by Wako Pure Chemical Industries, Ltd.) was added so that the final concentration became 10 ng/ml. Under the same conditions, the culturing was carried out for further 20 hours, whereupon the culture supernatant was collected and subjected to cool centrifugation at 4° C. for 5 minutes (cool centrifugal separator, manufactured by Hitachi) to remove cell fragments.
The pH of a conditioned medium (50 ml) containing MMP-9, thus prepared, was adjusted to 8.0 with 0.2N NaOH. […] Namely, the above-mentioned conditioned medium was passed through DEAE-Sephacel (manufactured by Pharmacia, gel volume: about 35 ml) preliminarily equilibrated with 50 mM Tris-HCl, pH 8.0 (A buffer), and a non-adsorption fraction was collected. Then, it was added to Dye Matrix Gel Green A (manufactured by Amicon Co., gel volume: about 6 ml) preliminarily equilibrated with 50 mM Tris-HCl, pH 7.5/10 MM CaCl2/0.05% Brij 35/0.02% NaN3 (B buffer) and thoroughly washed with the same buffer, whereupon the adsorbed enzyme was eluted with a 1M NaCl-containing B buffer. About 7.5 ml of the eluted fraction was diluted twice with the B buffer and added to Gelatin-Sepharose 4B (manufactured by Pharmacia, gel volume: about 6 ml) preliminarily equilibrated with a 0.5 M NaCl-containing B buffer. It was thoroughly washed with a 0.5M NaCl-containing B buffer, and eluted with the B buffer containing 10% of dimethylsulfoxide (DMSO) and 0.5 M of NaCl. 5.5 ml of the eluted fraction was dialyzed against a 0.1 M NaCl-containing B buffer to obtain 5.2 ml of a purified enzyme solution. The purified MMP-9 standard product was confirmed to have a single band of 92 kDa by a protein staining by SDS electrophoresis, and further, it was confirmed to have an adequate gelatin decomposing activity by gelatinzymography (carried out in accordance with a method by Howard E. W. et al; Journal Biological Chemistry, Vol. 266, 13064-13069, 1991) and to have an adequate substrate decomposing activity by the after-mentioned measurement employing a fluorescent peptide substrate specific to MMP.
The inhibition activity against human MMP-9 was measured by the following method in accordance with the method by C. G. Knight et al (FEBS Letters, Vol, 296, 263-266, 1992) employing a fluorescent peptide substrate (7-methoxycoumarin-4-yl)Acetyl-Pro-Leu-Gly-Leu-(3-[2,4-dinitrophenyl]—Ala—Arg-NH2, Code 3163-VC, manufactured by Peptide Institute, Inc.
Further, as the case requires, commercially available human MMP-9 purified enzyme (No. YU-18003, manufactured by Kabushiki Kaisha Yagai Chuo Kenkyusho; used in a final concentration of from 0.0125 to 0.025 unit/ml, No. CC079, manufactured by Chemicon International, Inc.; used in a final concentration of 0.2 μg/ml) was used for the tests. […]

Setting [1] is: intermediates, compounds of the formula (IV), 1st measurement, read-out: MMP-9 inhibition activities IC50, 1st.
Where [2] appears, read: intermediates, compounds of the formula (IV), 2nd measurement, read-out: MMP-9 inhibition activities IC50, 2nd.
Setting [3] is: intermediates, compounds of the formula (IV), average of 1st and 2nd (or single measurement), read-out: MMP-9 inhibition activities IC50, Average.
The mark [4] stands for this setting: compounds of the formula (I), 1st measurement, read-out: MMP-9 inhibition activities IC50, 1st.
Where [5] appears, read: compounds of the formula (I), 2nd measurement, read-out: MMP-9 inhibition activities IC50, 2nd.
[6] abbreviates: compounds of the formula (I), average of 1st and 2nd (or single measurement), read-out: MMP-9 inhibition activities IC50, Average.

SMILES strings stand for the structures. Read-outs that look alike come from different tables or passages of the source.

T1 sequence (P14780 107-707 limits assumed): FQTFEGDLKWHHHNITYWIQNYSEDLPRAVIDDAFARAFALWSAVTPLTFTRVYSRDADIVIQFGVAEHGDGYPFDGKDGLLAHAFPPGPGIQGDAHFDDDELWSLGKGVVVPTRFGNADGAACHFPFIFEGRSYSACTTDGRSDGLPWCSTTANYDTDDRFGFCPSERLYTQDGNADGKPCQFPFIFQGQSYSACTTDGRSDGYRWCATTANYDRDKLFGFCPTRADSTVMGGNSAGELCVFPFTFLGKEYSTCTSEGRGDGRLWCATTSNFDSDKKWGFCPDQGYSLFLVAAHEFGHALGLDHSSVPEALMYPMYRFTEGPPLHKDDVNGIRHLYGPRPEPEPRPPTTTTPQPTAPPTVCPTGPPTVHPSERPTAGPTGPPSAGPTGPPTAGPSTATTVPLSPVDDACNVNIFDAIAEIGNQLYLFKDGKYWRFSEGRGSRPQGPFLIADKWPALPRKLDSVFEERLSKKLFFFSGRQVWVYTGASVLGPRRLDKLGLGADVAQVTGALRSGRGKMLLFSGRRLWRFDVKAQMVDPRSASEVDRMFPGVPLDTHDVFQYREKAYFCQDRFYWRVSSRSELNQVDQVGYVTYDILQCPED

Consider `CSC(=C[N+](=O)[O-])NS(C)(=O)=O` [Intermediate 57, N-(1-(methylthio)-2-nitroethenyl)methanesulfonamide], for which the IC50 (in general, the concentration at which inhibition is half-maximal) amounted to 49.4 µM under setting [1], 37.5 µM under setting [2] and 43.5 µM under setting [3].

With `CONC(=C[N+](=O)[O-])SC` [Intermediate 63], the IC50 was 4.3 µM under setting [1] and 4.3 µM under setting [3].

On to `CSC(=C[N+](=O)[O-])NC(C)C` [Intermediate 10], for which the IC50 is, setting by setting: under setting [1], 26.9 µM; under setting [2], 46.6 µM; under setting [3], 36.8 µM.

Consider `CCS(=O)(=O)NC(=C[N+](=O)[O-])SC` [Intermediate 59], for which the IC50 reads like this: under setting [1], 11.4 µM; under setting [3], 11.4 µM.

With `CSC(=C[N+](=O)[O-])Nc1ccc(Cl)cc1` [Intermediate 19], the IC50 was determined as 29.9 µM under setting [1], 35.6 µM under setting [2] and 32.8 µM under setting [3].

Consider `CC(C)NC(=C[N+](=O)[O-])NN` [compound 88], for which the IC50 runs as follows: under setting [4], 37.7 µM; under setting [5], 57.5 µM; under setting [6], 47.6 µM.

Turning to `CNNC(=C[N+](=O)[O-])NC` [compound 82], the IC50 runs as follows: under setting [4], 52.9 µM; under setting [5], 19 µM; under setting [6], 36 µM.

As for `CNC(=C[N+](=O)[O-])NNc1cc(C(F)(F)F)ncn1` [compound 97], the IC50 is, setting by setting: under setting [4], 45.7 µM; under setting [5], 35.3 µM; under setting [6], 40.5 µM.

As for `CNC(=C[N+](=O)[O-])NN` [compound 93], the IC50 under setting [4] is 48.3 µM, the IC50 under setting [5] was 44.8 µM and the IC50 under setting [6] came out at 46.6 µM.

For the compound `CNC(=C[N+](=O)[O-])NNS(C)(=O)=O` [compound 108], the IC50 reads like this: under setting [4], 15 µM; under setting [5], 35 µM; under setting [6], 25 µM.

Regarding `O=[N+]([O-])C=C(NNc1ccccc1)Nc1ccccc1` [Compound No. 2], the IC50 under setting [4] turned out to be 45.1 µM, the IC50 under setting [5] amounted to 24.7 µM and the IC50 under setting [6] is 34.9 µM.

Regarding `CNC(=C[N+](=O)[O-])NN(C)c1ncc(C(F)(F)F)cc1Cl` [Compound No. 35, N-methyl-1-(2-methyl-2-(3-chloro-5-trifluoromethyl-2-pyridyl)hydrazino)-2-nitroetheneamine], the IC50 is, setting by setting: under setting [4], 14.6 µM; under setting [5], 22.1 µM; under setting [6], 18.4 µM.

On to `CNC(=C[N+](=O)[O-])NNc1ccccc1` [compound 84], for which the IC50 was 43.4 µM under setting [4], 14.2 µM under setting [5] and 28.8 µM under setting [6].

`CNC(=C[N+](=O)[O-])SC` [Intermediate 5]: the IC50 reads like this: under setting [1], 26.9 µM; under setting [3], 26.9 µM.

Consider `CSC(=C[N+](=O)[O-])NS(C)(=O)=O` (single isomer, unassigned) [Intermediate 64], for which the IC50 is 4.4 µM under setting [1] and 4.4 µM under setting [3].

With `CS(=O)(=O)NC(=C[N+](=O)[O-])NN1CCOCC1` [Compound No. 163, N-(1-(N-morpholino)amino-2-nitroethenyl)methanesulfonamide], the IC50 is 9.2 µM under setting [4] and 9.2 µM under setting [6].

In the case of `CCCCCCCCNC(=C[N+](=O)[O-])NN` [compound 46], the IC50 worked out at 36.2 µM under setting [4], 34.8 µM under setting [5] and 35.5 µM under setting [6].

Take `CNC(=C[N+](=O)[O-])NN(C)C` [compound 83]: the IC50 reads like this: under setting [4], 66.2 µM; under setting [5], 14.2 µM; under setting [6], 36 µM.

As to `CNC(=C[N+](=O)[O-])NN=Cc1ccccn1` [Compound No. 29, 2-pyridinecarbaldehyde 1-methylamino-2-nitroethenylhydrazone], the IC50 is, setting by setting: under setting [4], 30.8 µM; under setting [5], 24.5 µM; under setting [6], 27.7 µM.

`CCCCNC(=C[N+](=O)[O-])NN` [compound 85]: the IC50 is, setting by setting: under setting [4], 52.8 µM; under setting [5], 41.1 µM; under setting [6], 47 µM.

For `CCNC(=C[N+](=O)[O-])SC` [Intermediate 6], the IC50 under setting [1] was found to be 33 µM and the IC50 under setting [3] amounted to 33 µM.

(Values after patent US6596863B2, “Medical composition containing nitroetheneamine Derivative or salt there of as active constituent” (Ishihara Sangyo Kaisha, Ltd., priority 1998, dated 2003).)
